# Data published in patent US8431700B2, “Alkylsulfonyl-2,3-dihydrospiro[indene-1,4′-piperidine] analogs as GlyT1 inhibitors, methods for making same, and use of same in treating psychiatric disorders” (Vanderbilt University, priority 2009, dated 2013).
# Target: T1, GlyT1 (Homo sapiens, UniProt P48067)
# T1 construct: Human placental choriocarcinoma cells endogenously expressing GlyT1; host or cells: JAR human placental choriocarcinoma cells
# T1 sequence (P48067 1-706): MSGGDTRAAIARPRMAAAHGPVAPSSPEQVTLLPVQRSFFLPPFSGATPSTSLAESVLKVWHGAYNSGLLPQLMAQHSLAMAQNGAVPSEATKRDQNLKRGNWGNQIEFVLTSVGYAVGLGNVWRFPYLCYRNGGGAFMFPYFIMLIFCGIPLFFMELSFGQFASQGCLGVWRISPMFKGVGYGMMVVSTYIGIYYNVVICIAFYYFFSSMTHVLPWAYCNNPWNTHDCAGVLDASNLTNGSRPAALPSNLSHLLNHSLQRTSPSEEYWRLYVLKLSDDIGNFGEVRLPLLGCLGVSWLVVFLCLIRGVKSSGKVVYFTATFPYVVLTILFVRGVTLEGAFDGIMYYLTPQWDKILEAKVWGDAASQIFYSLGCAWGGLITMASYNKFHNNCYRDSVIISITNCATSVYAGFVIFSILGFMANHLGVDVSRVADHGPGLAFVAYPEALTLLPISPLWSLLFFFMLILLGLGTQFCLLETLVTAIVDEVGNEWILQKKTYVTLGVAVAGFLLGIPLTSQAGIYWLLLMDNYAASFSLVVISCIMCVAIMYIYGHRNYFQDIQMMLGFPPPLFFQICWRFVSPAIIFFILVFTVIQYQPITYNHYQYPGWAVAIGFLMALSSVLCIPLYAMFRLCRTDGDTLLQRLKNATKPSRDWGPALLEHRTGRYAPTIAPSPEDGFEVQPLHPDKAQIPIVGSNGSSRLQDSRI
# Assay: Saturation [14C]-glycine uptake in JAR cells to determine mode of inhibition
# Assay type: cell-based
# Details: in the presence of 1 nM NFPS; control Km=28.97 μM; read-out: Km of [14C]-glycine transport
# Experimental: To determine the mode of inhibition of GlyT1 inhibitors, a previously published assay for saturation glycine uptake was utilized. Briefly, human placental choriocarcinoma (JAR) cells (ATCC Catalog #HTB-144) were obtained from the American Type Culture Collection (Manassas, Va.). JAR cells were plated at a density of 12,000 cells/well in Cytostar-T 96 well plates (Amersham) in RPMI 1640 Media (Sigma, Catalog #R8758) containing 10 mM HEPES, 1 mM Sodium Pyruvate, 10% fetal bovine serum, 1× Antibiotic/Antimycotic (Invitrogen, Catalog #15240-062), and 4.5 g/L glucose 48 hours prior to the assay. Cell cultures were maintained at 37° C. in an atmosphere of 95% air, 5% CO2. On the day of the assay, culture media was removed, and 30 μL of T1BA buffer (120 mM NaCl, 2 mM KCl, 1 mM CaCl2, 1 mM MgCl2, 10 mM HEPES, 5 mM L-alanine, pH 7.5 using 1M tris base) with or without 2× drug was added to the JAR cells. Plates were incubated for 5 minutes at room temperature, followed by the addition of 30 μL of 2×[^14C]-glycine (111.7 mCi/mmol, obtained from Perkin-Elmer) made up in T1BA Buffer to give final concentrations as indicated. Aliquots of each concentration of [^14C]-glycine were saved in triplicate for direct determination of their concentration via liquid scintillation counting for each assay. Plates were incubated in the dark at room temperature for 3-4 hours and sealed 96-well Cytostar T plates were counted on a Top Count (Perkin-Elmer) with a 1 minute count time per well. Nonspecific uptake was determined in the presence of 10 mM cold glycine. Fixed concentrations of representative compounds and known competitive (ACPPB) and non-competitive inhibitors (NFPS) were included in each assay as comparators.
# Data were analyzed by non-linear regression analysis using GraphPad Prism 4.0 (GraphPad, La Jolla, Calif.). Uptake curves were fit to a Michaelis-Menton type equation: V=(Vmax*[S])/(Km+[…]), where V=Velocity in counts per minute (CPM), Vmax=Maximum Velocity in CPM, [S]=Substrate Concentration, and Km is the concentration of substrate to elicit 50% of the Maximal Velocity. Data were additionally plotted as Eadie-Hofstee plots of V versus V/[S] to better visualize the mode of inhibition. […] As an example of the disclosed series of compounds, 9UD was tested side-by-side with known competitive (ACPPB) and non-competitive (NFPS) inhibitors of glycine transport.
row,Compound,Km
1,"CN(CCC(Oc1ccc(-c2ccccc2)cc1)c1ccc(F)cc1)CC(=O)O (centres unmarked) [NFPS, (N-[3-(4′-fluorophenyl)-3-(4′-phenylphenoxy)propyl])sarcosine]",30.7 µM

# Same assay, conditions: in the presence of 1 nM NFPS; control Vmax=16056 CPM
row,Compound,Vmax of [14C]-glycine transport
1,"CN(CCC(Oc1ccc(-c2ccccc2)cc1)c1ccc(F)cc1)CC(=O)O (centres unmarked) [NFPS, (N-[3-(4′-fluorophenyl)-3-(4′-phenylphenoxy)propyl])sarcosine]",9298 CPM

# Same assay, conditions: in the presence of 5 nM ACPPB; control Vmax=20508 CPM
row,Vmax of [14C]-glycine transport,Compound
1,21592 CPM,CCCS(=O)(=O)N1CCC(c2ccccc2)([C@H](C)NC(=O)c2ccc(Cl)cc2N)CC1 [ACPPB]

# Same assay, conditions: in the presence of 400 nM 9UD; control Vmax=20495 CPM
row,Vmax of [14C]-glycine transport,Compound
1,20699 CPM,CCCCS(=O)(=O)N1CCC2(CC1)c1ccccc1CC2NC(=O)c1ccc(Cl)cc1Cl (centres unmarked) [Compound 9UD]

# Same assay, conditions: with respect to glycine; Eadie-Hofstee analysis
row,Mode of inhibition of GlyT1 glycine transport,Compound
1,competitive inhibition,CCCS(=O)(=O)N1CCC(c2ccccc2)([C@H](C)NC(=O)c2ccc(Cl)cc2N)CC1 [ACPPB]
2,competitive inhibition,CCCCS(=O)(=O)N1CCC2(CC1)c1ccccc1CC2NC(=O)c1ccc(Cl)cc1Cl (centres unmarked) [Compound 9UD]

row,Compound,Mode of inhibition of GlyT1 glycine transport
1,"CN(CCC(Oc1ccc(-c2ccccc2)cc1)c1ccc(F)cc1)CC(=O)O (centres unmarked) [NFPS, (N-[3-(4′-fluorophenyl)-3-(4′-phenylphenoxy)propyl])sarcosine]",non-competitive inhibition

# System: GlyT1
# Assay: not given
# Details: cited from earlier work
row,Compound,Duration of increased glycine levels in the prefrontal cortex
1,CN(CC[C@@H](Oc1ccc(-c2ccccc2)cc1)c1ccc(F)cc1)CC(=O)O [(R)-NFPS],> 24 h

# Target: T1, GlyT1
# Assay: [14C]-glycine uptake in JAR cells endogenously expressing GlyT1 (scintillation proximity assay)
# Assay type: cell-based
# Details: 10 μM [14C]-glycine, 3 h, read-out: Potency
# Source text: The procedure used was analogous to that disclosed in Williams, J. B.; Mallorga P. J.; Lemaire W.; Williams D. L.; Na S.; Patel S.; Conn J. P.; Pettibone D. J.; Austin C.; Sur C.; “Development of a scintillation proximity assay for analysis of Na+/Cl−-dependent neurotransmitter transporter activity,” ANAL. BIOCHEM. 2003 Oct. 1; 321(1):31-7.
# Human placental choriocarcinoma cells (JAR cells, ATCC No. HTB-144) were obtained from the American Type Culture Collection (Manassas, Va.). JAR cells were cultured in 96-well Cytostar T plates (GE Healthcare No. RPNQ0162) in RPMI 1640 medium (Sigma-Aldrich) containing 10% fetal bovine serum, 10 mM HEPES, 1 mM sodium pyruvate, penicillin (100 μg/ml), and streptomycin (100 μg/ml). Cells were plated at a density of 1.3×10^4 cells/well and grown at 37° C. in a humidified atmosphere of 5% CO2 for 40-48 h. Culture medium was removed from the Cytostar T plate and JAR cells were incubated with 30 μl of TB1A buffer (120 mM NaCl, 2 mM KCl, 1 mM CaCl2, 1 mM MgCl2, 10 mM Hepes, 5 mM L-alanine, pH 7.5 adjusted with 1 M Tris base) with or without multiple concentrations of test compound (added at 2× final concentration) for 1 min. Then 30 μl of [^14C]-glycine (Perkin-Elmer) diluted in TB1A was added to each well to give a final concentration of 10 μM. Cytostar T plates were then incubated in the dark at room temperature for 3 h, sealed with opaque white bottom plate seals (Perkin-Elmer) and clear top plate seals (Topseal A, Perkin-Elmer), and were counted on a Top Count (Packard). Glycine uptake was determined by measuring radioactivity in each well and plotted as a function of concentration of test compound. […] Nonspecific uptake of [^14C]-glycine was determined in the presence of 10 mM cold glycine. [^14C]-taurine (American Radiolabeled Chemicals, Inc.) uptake experiments were performed according to the same protocol except that 10 mM cold taurine was used to determine nonspecific uptake. For GlyT2 assays, COS-7 (ATCC No. CRL-1651) cells were utilized. COS-7 cells were transiently transfected with the human GlyT2 cDNA (Origene Technologies Inc., SC303452) using Fugene 6 (Roche) according to the manufacturer's instructions in Dulbecco's modified Eagle's medium (DMEM, Invitrogen) containing 10% Fetal Bovine Serum, 10 mM HEPES, 1 mM sodium pyruvate, penicillin (100 μg/ml), and streptomycin (100 μg/ml). The following day, the cells were plated at a density of 5×10^5 cells/well in Cytostar T plates and maintained at 37° C. in a humidified atmosphere of 5% CO2 for 24 h. GlyT2 glycine uptake experiments were performed according to the same protocol previously described.
row,IC50,Compound
1,> 10000 nM,CS(=O)(=O)N1CCC2(CC1)c1ccccc1CC2NC(=O)c1ccc(Cl)cc1Cl (centres unmarked) [Compound 2a]
2,18 nM,Cn1cnc(S(=O)(=O)N2CCC3(CC2)c2ccccc2CC3NC(=O)c2ccccc2Cl)c1 (centres unmarked) [Compound 4a]
3,15 nM,Cn1cnc(S(=O)(=O)N2CCC3(CC2)c2ccccc2CC3NC(=O)c2ccc(Cl)cc2)c1 (centres unmarked) [Compound 4b]
4,18 nM,Cn1cnc(S(=O)(=O)N2CCC3(CC2)c2ccccc2CC3NC(=O)c2ccc(F)cc2F)c1 (centres unmarked) [Compound 4c]
5,10 nM,Cn1cnc(S(=O)(=O)N2CCC3(CC2)c2ccccc2CC3NC(=O)c2c(F)cccc2F)c1 (centres unmarked) [Compound 4d]
6,53 nM,Cn1cnc(S(=O)(=O)N2CCC3(CC2)c2ccccc2CC3NC(=O)c2ccc(Cl)c(Cl)c2)c1 (centres unmarked) [Compound 4e]
7,310 nM,Cn1cnc(S(=O)(=O)N2CCC3(CC2)c2ccccc2CC3NC(=O)c2cccc(C(F)(F)F)c2)c1 (centres unmarked) [Compound 4g]
8,1160 nM,CCCS(=O)(=O)N1CCC2(CC1)c1ccccc1CC2NC(=O)c1c(F)cccc1F (centres unmarked) [Compound 5b]
9,1600 nM,CCCS(=O)(=O)N1CCC2(CC1)c1ccccc1CC2NC(=O)c1cccc(C(F)(F)F)c1 (centres unmarked) [Compound 5e]
10,270 nM,CCCS(=O)(=O)N1CCC2(CC1)c1ccccc1CC2NC(=O)c1ccc(C(F)(F)F)cc1 (centres unmarked) [Compound 5f]
11,266 nM,CCCS(=O)(=O)N1CCC2(CC1)c1ccccc1CC2NC(=O)c1ccccc1I (centres unmarked) [Compound 5h]
12,52 nM,CCCS(=O)(=O)N1CCC2(CC1)c1ccccc1CC2NC(=O)c1ccc(Cl)cc1Cl (centres unmarked) [Compound 7d]

# Second part, the molecule before the results:
row,Compound,IC50
1,"CCCS(=O)(=O)N1CCC2(CC1)c1ccccc1CC2NC(=O)c1ccc(Cl)cc1Cl (single isomer, unassigned) [Compound 7c]",1300 nM
2,CCS(=O)(=O)N1CCC2(CC1)c1ccccc1CC2NC(=O)c1ccc(Cl)cc1Cl (centres unmarked) [Compound 2b],> 10000 nM
3,CCCS(=O)(=O)N1CCC2(CC1)c1ccccc1CC2NC(=O)c1ccc(Cl)cc1Cl (centres unmarked) [Compound 2c],450 nM
4,CC(C)S(=O)(=O)N1CCC2(CC1)c1ccccc1CC2NC(=O)c1ccc(Cl)cc1Cl (centres unmarked) [Compound 2e],> 10000 nM
5,CCCCS(=O)(=O)N1CCC2(CC1)c1ccccc1CC2NC(=O)c1ccc(Cl)cc1Cl (centres unmarked) [Compound 2f],> 10000 nM
6,O=C(NC1Cc2ccccc2C12CCN(S(=O)(=O)c1cccs1)CC2)c1ccc(Cl)cc1Cl (centres unmarked) [Compound 2i],> 10000 nM
7,Cn1cnc(S(=O)(=O)N2CCC3(CC2)c2ccccc2CC3NC(=O)c2ccccc2C(F)(F)F)c1 (centres unmarked) [Compound 4f],24 nM
8,CCCS(=O)(=O)N1CCC2(CC1)c1ccccc1CC2NC(=O)c1ccc(Cl)cc1 (centres unmarked) [Compound 5a],1000 nM
9,CCCS(=O)(=O)N1CCC2(CC1)c1ccccc1CC2NC(=O)c1ccc(Cl)c(Cl)c1 (centres unmarked) [Compound 5c],609 nM
10,CCCS(=O)(=O)N1CCC2(CC1)c1ccccc1CC2NC(=O)c1ccccc1C(F)(F)F (centres unmarked) [Compound 5d],674 nM
11,CCCS(=O)(=O)N1CCC2(CC1)c1ccccc1CC2NC(=O)c1ccccc1OC (centres unmarked) [Compound 5g],2700 nM
12,Cn1cnc(S(=O)(=O)N2CCC3(CC2)c2ccccc2CC3NC(=O)c2ccc(Cl)cc2Cl)c1 (centres unmarked) [Compound 7a],3500 nM
